How the values were obtained:
[1] = test system: JIMT1 stem cell tumorspheres; assay: Viability of JIMT1 stem cell tumorspheres (MTS assay); type: cell-based, human; conditions: 6 days
Protocol: FIG. 8. Effect of β-O-Gln, α-O-Gln, β-C-Gln and ET-18-OCH3 on the viability of JIMT1 stem cell tumorspheres. BT-474 cancer stem cells were grown for 7 days in ultra low adhesion 6-well plates. The tumorspheres formed were harvested, trypsinised and cell numbers were determined. Equal numbers of cells were dispersed into 48-well non-treated plates in mammocult medium and incubation was under static conditions. Wells with only medium but no cells were treated in an identical manner to serve as blanks. After spheres were formed, O-Gln, C-Gln or ET-18-OCH3 (0, 10, 20, 30 μM) were added and incubation was for a total of 6 days. At the end of the incubation, the MTS reagent was added to each well and the plates were mixed in a nutator in a 5% CO2 incubator for 4 h. The absorbance of each well was read at 470 nm. The results are the means±standard deviation of 4 independent determinations.
(§1) Cell viability assay: Cell viability was determined by the Cell Titre 96 Aqueous One solution proliferation assay ((MTS assay; Promega) according to the instructions of the manufacturer.
The viability of cells in spheroids incubated with 20 or 30 μM ET-18-OCH3 was between 30-40% of controls.

[2] = test system: BT-474 stem cell tumorspheres; assay: Viability of BT-474 stem cell tumorspheres (MTS assay); type: cell-based, human; conditions: for Viability (% 0f control) / loss of viability / toxicity against the cancer stem cells: 6 days; for Viability (% 0f control): Table 2; for toxicity against the cancer stem cells: BT-474 spheroids
Protocol: FIG. 6. Effect of β-O-Gln, α-O-Gln, β-C-Gln and ET-18-OCH3 on the viability of BT-474 stem cell tumorspheres. BT-474 cancer stem cells were grown for 7 days in ultra low adhesion 6 well plates. The tumorspheres formed were harvested, trypsinised and cell numbers were determined. Equal numbers of cells were dispersed into 48-well plates in mammocult medium and incubation was under static conditions. Wells with only medium but no cells were treated in an identical manner to serve as blanks. After spheres were formed, β-O-Gln, α-O-Gln, β-C-Gln or ET-18-OCH3 (0, 10, 20, 30 μM) were added and incubation was for a total of 6 days. At the end of the incubation, the MTS reagent was added to each well and the plates were rotated on a Nutator mixer in a 5% CO2 incubator for 4 h. The absorbance of each well was read at 470 nm. The results are the means±standard deviation of 4 independent determinations.
as §1
The viability of the material at the end of the incubation was determined using the MTS assay. […] In cells incubated with 10 μM of β-C-Gln, 90% of the cells were not viable. […] In contrast, in experiments with ET-18-OCH3, 10 or 20 μM ET-18-OCH3 had little effect on the viability of BT-474 spheroids and at a concentration of 30 μM viability was around 45% relative to controls. The results of the integrity studies correlate well with the viability studies.
We also investigated the effect of α-O-Galn, β-O-Galn or α-O-Mann on the viability of BT-474 spheroids. The spheroids were incubated with the compounds for 6 days and the viability was assessed by the MTS assay. […] Viability was down to around 10% at 10 μM concentration of the compound. […] At a concentration of 30 μM a significant proportion (26-32%) of the BT-474 cancer stem cells were still viable. The cytotoxic efficacy of GAELs is dependent on the type of sugar moiety and the anomeric form in some instances.

cancer cell lines = conditions: Xu et al., ChemMedChem in press; cited from earlier work
cancer stem cells = assay: Tumorsphere formation by freshly sorted cancer stem cells; type: cell-based, human; conditions: added to freshly sorted cancer stem cells, 10 μM and above, 6 days
Description: Breast cancer stem cell enriched cell population was obtained by staining breast cancer cell lines BT-474 and JIMT-1 for aldehyde dehydrogenase 1 (ALDH1) using the assay kit from Stem Cell Technologies (Vancouver BC, Canada) according to the instructions of the manufacturer with the appropriate controls. BT-474 is a ductal carcinoma cell line (Lasfargues E Y, Coutinho W G, Dion A S (1979) A human breast tumor cell line (BT-474) that supports mouse mammary tumor virus replication. In Vitro 15, 723-729) while JIMT-1 is a carcinoma cell line that is resistant to herceptin (Tanner M, Kapanen A J, Junttila T, Raheem O, Grenman S, Elo J, Elenius K, Isola J (2004). Characterization of a novel cell line established from a patient with herceptin-resistant breast cancer. Mol Cancer Ther 3, 1585-1592). Following the staining, the cells stained for ALDH1 were sorted from the bulk population by flow cytometry on a 4 laser MoFloXPP high speed/pressure cell sorter. The cells were pelleted by centrifugation, resuspended in supplemented Mammocult medium (Stem Cell Technologies) and dispersed into ultra-low adhesive 6-well plates or 35 mm dishes for 7 days to allow the formation of spheroids (mammospheres). After 7 days, the spheres were separated from single cells (dead non-stem cells) by sieving the contents of the well through a […] nylon cell strainer (BD Falcon). The spheres retained in the sieve are washed with Hanks buffer and subsequently trypsinised to obtain a single cell suspension of cancer stem cells. The cell numbers were determined with a Coulter ZM counter and the cells were seeded into the appropriate low adhesion tissue culture ware for various studies.
AEL solutions in ethanol were diluted into supplemented mammocult medium generally at twice the desired final concentration. A volume equal to that in the wells was added to dilute the drug to the desired concentration in each well. Subsequently any further addition of drug to the wells, utilized AEL solution prepared at the desired concentration. […]

[3] = Generation of large acidic vacuoles; type: cell-based
Description: Autophagy 5, 835-84663). Furthermore an active endocytosis pathway was essential for GAEL activity (Samadder P, Byun H-S, Bittman R, Arthur G (2011) The endocytosis pathway is required for the cytotoxic effects of glycosylated antitumor ether lipids, Anticancer Res 31, 3809-3818). The generation of the large acidic vacuoles is a hallmark of this non-apoptosis death pathway induced by GAELs.

BT474 cancer stem cells = assay: Trypan blue dye exclusion viability of BT474 cancer stem cells; type: cell-based, human; conditions: BT474 cancer stem cells incubated with compound
Protocol: Trypan blue dye exclusion assay using the TC10 automated cell counter (BioRad) was also used for some studies.
We investigated the effects of the GAELs and the ALPET-18-OCH3 on the ability of the cancer stem cells to form tumorspheres. […] This was a concentration dependent event and at concentrations greater than 10 μM spheroid formation was completely disrupted.

[4] = test system: JIMT-1 stem cell spheroids; assay: Morphology of JIMT-1 stem cell spheroids; type: cell-based, human; conditions: 6 days, FIG. 7B
Protocol: FIG. 7. A. Effect of β-O-Gln, β-C-Gln or ET-18-OCH3 on morphology of JIMT-1 stem cell spheroids. B. Effect of β-O-Gln, α-O-Gln or ET-18-OCH3 on morphology of JIMT-1 stem cell spheroids. JIMT-1 cancer stem cells were grown for 7 days in ultra low adhesion 6 well plates. The tumorspheres formed were harvested, trypsinised and cell numbers were determined. Equal numbers of cells were dispersed into 48-well non-treated plates in mammocult medium and incubated in a CO2 incubator under static conditions. After spheres were formed, O-Gln, C-Gln or ET-18-OCH3 were added (0, 10, 20 and 30 μM) and incubation was for a total of 6 days with media supplementation after 3 days. Images for FIG. 7A were taken at day 0 and after 72 h following addition of the compounds. Images for FIG. 7B were taken after 6 days incubation with the compounds.
The above studies were repeated with JIMT-1 spheroids.

BT-474 cancer stem cells = assay: BT-474 cancer stem cell spheroid formation; type: cell-based, human; conditions: BT474 cancer stem cells, FIG. 1B
Protocol: FIG. 1. A. Effect of β-C-Gln (β-AC1) on BT-474 cancer stem cell spheroid formation. BT-474 cancer stem cells were obtained by staining BT474 cells for ALDH1 and sorting the stained from unstained cells by flow cytometry. The ALDH1 stained cells were grown in ultra-low adhesion 6-well plates in mammocult medium for 7 days. The spheroids were isolated and trypsinised to generate single cells. The cells were then seeded for 2 days in ultra-low adhesion 6-well plates, and subsequently incubated in the absence or presence of C-Gln for up to 12 days. The media was replenished after 6 days. B. Effect of β-O-Gln (β-AO1), α-O-Gln (α-AO1), or ET-18-OCH3 on BT-474 cancer stem cell spheroid formation.
Breast cancer stem cell enriched cell population was obtained by staining breast cancer cell lines BT-474 and JIMT-1 for aldehyde dehydrogenase 1 (ALDH1) using the assay kit from Stem Cell Technologies (Vancouver BC, Canada) according to the instructions of the manufacturer with the appropriate controls. […] The cell numbers were determined with a Coulter ZM counter and the cells were seeded into the appropriate low adhesion tissue culture ware for various studies. […]

## CCCCCCCCCCCCCCCCCCOCC(COP(=O)([O-])OCC[N+](C)(C)C)OC (stereo not shown) [ET-18-OCH3, 1-O-octadecyl-2-O-methyl-glycerophosphocholine, reference compound]
[1]; 20 or 30 μM
  viability, % of controls: 30-40 % of controls
[1]; Homo sapiens, JIMT-1, 144 h, 10 μM, read-out: loss of viability
  cytotoxicity at 10 µM: 40%
[2]; Homo sapiens, BT-474, 144 h, read-out: viability relative to controls
  viability at 30 µM: ~45%

## CCCCCCCCCCCCCCCCOC[C@H](CS[C@H]1O[C@H](CO)[C@@H](O)[C@H](O)[C@H]1N)OC [α-AS2, 1-O-Hexadecyl-2-O-methyl-3-S-(2′-amino-2′-deoxy-α-D-glucopyranosyl)-sn-glycerol]
Cancer cell lines
  cytotoxicity compared to β-O-Gln (β-AO1): not as active as β-O-Gln

## CCCCCCCCCCCCCCCCOC[C@H](COC1O[C@H](CO)[C@H](O)[C@H](O)[C@H]1N)OC (stereo partly drawn) [α-O-Galn, 1-O-Hexadecyl-2-O-methyl-3-O-(2′-amino-2′-deoxy-D-galactopyranosyl)-sn-glycerol]
Cancer stem cells
  spheroid formation: unable to form spheroids
[2]; 10 μM
  Viability (% 0f control): around 10 % 0f control
[2]; 10 μM, listed as α-Galn
  Viability (% 0f control): 9.64 % 0f control
[2]; 20 μM, listed as α-Galn
  Viability (% 0f control): 0 % 0f control
[2]; 30 μM, listed as α-Galn
  Viability (% 0f control): 0 % 0f control
[2]; 20 or 30 μM
  loss of viability: Complete loss of viability
[2]
  toxicity against the cancer stem cells: quite toxic
[3]
  generation of large acidic vacuoles: generation of these vacuoles

## CCCCCCCCCCCCCCCCOC[C@H](COC1O[C@H](CO)[C@@H](O)[C@H](O)[C@H]1N)OC (stereo partly drawn) [α-O-Gln, 1-O-Hexadecyl-2-O-methyl-3-O-(2′-amino-2′-deoxy-D-glucopyranosyl)-sn-glycerol]
Cancer cell lines
  cytotoxicity compared to β-O-Gln (β-AO1): superior activity
BT474 cancer stem cells
  viability (trypan dye exclusion): not viable
[4]
  spheroid integrity: complete disintegration of the spheroids
Cancer stem cells
  spheroid formation: unable to form spheroids
[1]; 10 μM
  loss of viability: 90%
[1]; 20 or 30 μM
  loss of viability: Complete loss of viability
[2]; 10 μM
  loss of viability: about 60%
[2]; 20 or 30 μM
  loss of viability: total loss of viability
[3]
  generation of large acidic vacuoles: generation of these vacuoles
BT-474 cancer stem cells
  spheroid formation: unable to form spheroids

## CCCCCCCCCCCCCCCCOCC(CO[C@H]1O[C@H](CO)[C@@H](O)[C@H](O)[C@@H]1N)OC (stereo partly drawn) [α-O-Mann]
[2]; 10 μM
  Viability (% 0f control): 134.3 % 0f control
[2]; 20 μM
  Viability (% 0f control): 58.84 % 0f control
[2]; 30 μM, listed as α-Mann
  Viability (% 0f control): 25.9 % 0f control
[2]
  toxicity against the cancer stem cells: not as active as α-O-Galn

## CCCCCCCCCCCCCCCCOC[C@H](CS[C@@H]1O[C@H](CO)[C@@H](O)[C@H](O)[C@H]1N)OC [β-AS1, 1-O-Hexadecyl-2-O-methyl-3-S-(2′-amino-2′-deoxy-β-D-glucopyranosyl)-sn-glycerol]
Cancer cell lines
  cytotoxicity compared to β-O-Gln (β-AO1): not as active as β-O-Gln

## CCCCCCCCCCCCCCCCOC[C@H](COC1O[C@H](CO)[C@H](O)[C@H](O)[C@H]1N)OC (stereo partly drawn) [β-O-Galn, 1-O-Hexadecyl-2-O-methyl-3-O-(2′-amino-2′-deoxy-D-galactopyranosyl)-sn-glycerol]
[2]; 10 μM, listed as β-Galn
  Viability (% 0f control): 153.7 % 0f control
[2]; 20 μM, listed as β-Galn
  Viability (% 0f control): 48.0 % 0f control
[2]; 30 μM, listed as β-Galn
  Viability (% 0f control): 32.16 % 0f control
[2]
  toxicity against the cancer stem cells: not as active as α-O-Galn
